Data as given in US20220279826A1, “OFF-FLAVOR SUPPRESSING AGENT” (AJINOMOTO CO., INC., priority 2019, published 2022).

Tests used:
[1] = Sensory evaluation of off-taste suppressing effect in 0.8 wt % potassium chloride aqueous solution (Experimental Examples 1 and 2); details: for off-taste suppressing effect: 0.8 wt % potassium chloride aqueous solution; for intensity of off-tastes (bitter taste, metallic taste, harsh taste, astringent taste) derived from potassium chloride: potassium chloride aqueous solutions, Tables 1 to 14
Protocol: Each compound shown in the following Tables 1 to 13 was added to a 0.8 wt % potassium chloride aqueous solution at the concentration (addition concentration) shown in the following Tables 1 to 13 to prepare each evaluation sample.
Based on the following evaluation criteria, a panel of two experts determined by consensus the intensity of off-tastes (bitter taste, metallic taste, harsh taste, astringent taste) derived from potassium chloride in each evaluation sample, by reference to each potassium chloride aqueous solution adjusted to 0.8 wt %, 0.75 wt %, 0.7 wt %, or 0.65 wt %.
−: intensity of the same level as potassium chloride aqueous solution with potassium chloride concentration of not less than 0.8 wt %
+: intensity of the same level as potassium chloride aqueous solution with potassium chloride concentration of not less than 0.75 wt % and less than 0.8 wt %
++: intensity of the same level as potassium chloride aqueous solution with potassium chloride concentration of not less than 0.7 wt % and less than 0.75 wt %
+++: intensity of the same level as potassium chloride aqueous solution with potassium chloride concentration of not less than 0.65 wt % and less than 0.7 wt %
Each compound shown in the following Table 14 was added to a 0.8 wt % potassium chloride aqueous solution at the concentration (addition concentration) shown in the following Table 14 to prepare each evaluation sample.

[2] = Sensory evaluation in ramen noodle soup solution with potassium chloride (Experimental Example 3); details: for off-taste suppressing effect: Ramen noodle soup solution with 0.8 wt % potassium chloride; for intensity of off-tastes (bitter taste, metallic taste, harsh taste, astringent taste) derived from potassium chloride: base solutions of Tables 15 to 17 (ramen noodle soup, chicken broth, potage)
Protocol: (§1) As shown in the following (1) to (3) below, 0.8 wt % of potassium chloride was added to a food base powder corresponding to 0.5 wt % of sodium chloride to prepare each base solution having an off-taste derived from potassium chloride.
Potassium chloride (0.8 g) was added to a soup powder (1.1 g) of a commercially available instant ramen noodle (manufactured by SANYO FOODS Co., Ltd., trade name “Sapporo Ichiban Shouyuaji”), hot water (98.1 g) was added to dissolve the mixture to prepare a base solution (ramen noodle soup solution).
(§2) Each compound shown in the following Tables 15 to 17 was added to each base solution (ramen noodle soup solution, chicken broth solution, potage solution) so as to achieve the concentration (addition concentration) shown in the following Tables 15 to 17 to prepare each evaluation sample.
(§3) By a method similar to that in Experimental Example 1, a panel of two experts determined the intensity of off-tastes (bitter taste, metallic taste, harsh taste, astringent taste) derived from potassium chloride in each evaluation sample.

[3] = Sensory evaluation in chicken broth solution with potassium chloride (Experimental Example 3); details: chicken broth solution with 0.8 wt % potassium chloride
Protocol: as §1
Potassium chloride (0.8 g) was added to a commercially available powdered chicken broth mix (manufactured by Ajinomoto Co., Inc., trade name “Marutorigara Soup”) (1.0 g), hot water (98.2 g) was added to dissolve the mixture to prepare a base solution (chicken broth soup solution).
as §2, §3

[4] = Sensory evaluation in potage solution with potassium chloride (Experimental Example 3); details: Potage solution with 0.8 wt % potassium chloride
Protocol: as §1
Potassium chloride (0.8 g) was added to a commercially available powdered instant potage (manufactured by Ajinomoto Co., Inc., trade name “Knorr (registered trade mark) Cup Soup Potage”) (7.1 g), hot water (92.1 g) was added to dissolve the mixture to prepare a base solution (potage solution).
as §2, §3

[5] = addition concentration 1 weight ppb (0.125 weight ppm with respect to potassium chloride)
[6] = addition concentration 5 weight ppb (0.625 weight ppm with respect to potassium chloride)
[7] = addition concentration 10 weight ppb (1.25 weight ppm with respect to potassium chloride)
[8] = addition concentration 50 weight ppb (6.25 weight ppm with respect to potassium chloride)
[9] = addition concentration 100 weight ppb (12.5 weight ppm with respect to potassium chloride)
[10] = addition concentration 10 ppb (1.25 weight ppm with respect to potassium chloride)
[11] = addition concentration 500 weight ppb (62.5 weight ppm with respect to potassium chloride)
[12] = addition concentration 100 ppb (12.5 weight ppm with respect to potassium chloride)

Compound	off-taste suppressing effect [1, 5]	off-taste suppressing effect [1, 6]	off-taste suppressing effect [1, 7]	off-taste suppressing effect [1, 8]	off-taste suppressing effect [1, 9]	intensity of off-tastes (bitter taste, metallic taste, harsh taste, astringent taste) derived from potassium chloride [1]	off-taste suppressing effect [2, 10]	intensity of off-tastes (bitter taste, metallic taste, harsh taste, astringent taste) derived from potassium chloride [2]	off-taste suppressing effect [3, 10]	off-taste suppressing effect [4, 10]	off-taste suppressing effect [1, 11]	off-taste suppressing effect ([1]; addition concentration 1000 weight ppb (125 weight ppm with respect to potassium chloride))	off-taste suppressing effect [2, 12]	off-taste suppressing effect [3, 12]	off-taste suppressing effect [4, 12]
CC1=C(O)C(=O)C(C)O1 (stereo not drawn) [4-hydroxy-2,5-dimethyl-3(2H)-furanone]	+ (intensity of the same level as potassium chloride aqueous solution with potassium chloride concentration of not less than 0.75 wt % and less than 0.8 wt %)	+ (intensity of the same level as potassium chloride aqueous solution with potassium chloride concentration of not less than 0.75 wt % and less than 0.8 wt %)	++ (intensity of the same level as potassium chloride aqueous solution with potassium chloride concentration of not less than 0.7 wt % and less than 0.75 wt %)	++ (intensity of the same level as potassium chloride aqueous solution with potassium chloride concentration of not less than 0.7 wt % and less than 0.75 wt %)	++ (intensity of the same level as potassium chloride aqueous solution with potassium chloride concentration of not less than 0.7 wt % and less than 0.75 wt %)	decreased	++ (intensity of the same level as potassium chloride aqueous solution with potassium chloride concentration of not less than 0.7 wt % and less than 0.75 wt %)	decreased	++ (intensity of the same level as potassium chloride aqueous solution with potassium chloride concentration of not less than 0.7 wt % and less than 0.75 wt %)	++ (intensity of the same level as potassium chloride aqueous solution with potassium chloride concentration of not less than 0.7 wt % and less than 0.75 wt %)					
CC1=C(O)C(=O)OC1C (stereo not drawn) [4,5-dimethyl-3-hydroxy-2(5H)-furanone]	+ (intensity of the same level as potassium chloride aqueous solution with potassium chloride concentration of not less than 0.75 wt % and less than 0.8 wt %)	++ (intensity of the same level as potassium chloride aqueous solution with potassium chloride concentration of not less than 0.7 wt % and less than 0.75 wt %)	++ (intensity of the same level as potassium chloride aqueous solution with potassium chloride concentration of not less than 0.7 wt % and less than 0.75 wt %)	+ (intensity of the same level as potassium chloride aqueous solution with potassium chloride concentration of not less than 0.75 wt % and less than 0.8 wt %)	+ (intensity of the same level as potassium chloride aqueous solution with potassium chloride concentration of not less than 0.75 wt % and less than 0.8 wt %)	decreased	++ (intensity of the same level as potassium chloride aqueous solution with potassium chloride concentration of not less than 0.7 wt % and less than 0.75 wt %)	decreased	++ (intensity of the same level as potassium chloride aqueous solution with potassium chloride concentration of not less than 0.7 wt % and less than 0.75 wt %)	++ (intensity of the same level as potassium chloride aqueous solution with potassium chloride concentration of not less than 0.7 wt % and less than 0.75 wt %)	+ (intensity of the same level as potassium chloride aqueous solution with potassium chloride concentration of not less than 0.75 wt % and less than 0.8 wt %)	+ (intensity of the same level as potassium chloride aqueous solution with potassium chloride concentration of not less than 0.75 wt % and less than 0.8 wt %)			
CC1=C(O)C(=O)CO1 [4-hydroxy-5-methyl-3(2H)-furanone]	+ (intensity of the same level as potassium chloride aqueous solution with potassium chloride concentration of not less than 0.75 wt % and less than 0.8 wt %)	+ (intensity of the same level as potassium chloride aqueous solution with potassium chloride concentration of not less than 0.75 wt % and less than 0.8 wt %)	+ (intensity of the same level as potassium chloride aqueous solution with potassium chloride concentration of not less than 0.75 wt % and less than 0.8 wt %)	++ (intensity of the same level as potassium chloride aqueous solution with potassium chloride concentration of not less than 0.7 wt % and less than 0.75 wt %)	++ (intensity of the same level as potassium chloride aqueous solution with potassium chloride concentration of not less than 0.7 wt % and less than 0.75 wt %)	decreased		decreased			+ (intensity of the same level as potassium chloride aqueous solution with potassium chloride concentration of not less than 0.75 wt % and less than 0.8 wt %)		++ (intensity of the same level as potassium chloride aqueous solution with potassium chloride concentration of not less than 0.7 wt % and less than 0.75 wt %)	++ (intensity of the same level as potassium chloride aqueous solution with potassium chloride concentration of not less than 0.7 wt % and less than 0.75 wt %)	++ (intensity of the same level as potassium chloride aqueous solution with potassium chloride concentration of not less than 0.7 wt % and less than 0.75 wt %)
